Measurements reported in patent US20080075750A1, “METHODS FOR PRODUCING THREE-DIMENSIONAL TISSUE-ENGINEERED CARDIAC CONSTRUCTS AND USES REGARDING SAME” (The Nemours Foundation, priority 2001, published 2008).

How the values were obtained:
[1] = system: Primary NNRCCs (neonatal rat cardiac cells), 2D culture dishes and 3D constructs; assay: Spontaneous contractile (beat) frequency of cardiac cell cultures before and after exposure to adrenergic/cholinergic agents; assay type: cell-based; settings: for Propranolol responders: responding cultures of all cultures; for Postproprandolol beat frequency: three minutes after pharmacological dose, responders, 37° C.; for decrease in beat frequency post propranolol: versus baseline of responders
Experimental: Primary NNRCCs in SFHM form spontaneously and rhythmically contracting cultures within the first twenty hours after plating in monolayer cultures. To directly assess contractility and the modulation of contractile activity by […], the effects of propranolol, which is a beta-blocker on the frequency of spontaneous contraction in 2D and 3D preparation were evaluated. 3D cardiac cell cultures were prepared in transparent Teflon® culture bags that were slowly rotated to quiescently suspend the cells and HFN-coated polystyrene beads. Cultures were observed on a 37° C. microscope stage and the spontaneous contractile frequency of the constructs was determined. Samples were then exposed to a pharmacological dose of propranolol without disturbing the field of view on the microscope stage. Three minutes later, the contractile frequency was reassessed.
As expected, both culture types were spontaneously contractile. In standard (2D) preparations entire culture wells beat in unison. In the 3D constructs, entire aggregates of cells in physical contact beat in unison. […]

[2] = system: bioreactor cultured neonatal rat cardiac cells on microcarriers (BMP 2 function); assay: Formation of tissue-like aggregates in bioreactor cardiac cultures with Noggin (BMP antagonist) in the media; assay type: cell-based
Experimental: 2 day old neonatal rat pups were halothane anesthetized and cardioectomitized. The isolated hearts were minced and subjected to about 16 hour digestion by about […] trypsin, followed by about […] collagenase II digestion and cell straining to completely separate individual cells. The cells were then counted on hemocytometer with trypan blue staining aid resuspended in modified serum-free cardiac media (SM3+) at a density of about 1×10^6 total cells/ml. Cells were then mixed with fibronectin-coated Nunclon plastic microcarriers at […] and infused into PTFE bags for bioreactor rotation, with the remainder plated onto fibronectin-coated six-well Nunclon plastic plates at a density of about 2×10^6 cells/well as a control population. Feeding was performed at about 24 hours post-inoculation to remove unattached cells, and about every 3 days thereafter. Samples were collected prior to culture start (Day 0) and at varying intervals thereafter. For the Noggin treatment protocol, about. 0.4 μg/ml Noggin (Pepro Tech, London, UK) in about 10 mM acetic acid was added to media just prior to inoculation and to media used for feeding, with control using untreated media.
Moreover, Noggin was used to assess the role of BMP2 in the formation of tissue-like aggregates in bioreactors. Noggin is a secreted factor which acts as an antagonist for members of the BMP family of proteins (i.e., in solution, Noggin will bind BMP 2 and prevent BMP 2 from binding to its receptor). Thus, adding an effective amount of Noggin to the culture media may suppress BMP 2 function. […] The control bioreactor cardiac cultures formed large tissue-like aggregates surrounding multiple microcarriers complete with substantial thick structure formation visible between the microcarriers.

For `CC(C)NCC(O)COc1cccc2ccccc12` (centres unmarked) [Propranolol, propranolol], the Propranolol responders ([1]; 2D/culture dishes) was “(19 of 25)”, the Postproprandolol beat frequency ([1]; 2D/culture dishes) was 130.86 (±10.23) and the “decrease in beat frequency post propranolol” value ([1]; 2D/culture dishes) was 30% decrease. For the same molecule, the Propranolol responders ([1]; 3D/HARVs) was “(6 of 12)”, the Postproprandolol beat frequency ([1]; 3D/HARVs) was 34.59 (±3.842) and the “decrease in beat frequency post propranolol” value ([1]; 3D/HARVs) was 34% decrease. The “effect on beat frequency” value ([1]; both 3D and 2D conformations) was “decrease in beat frequency in a subset of cultures”.

For `CN1[C@@H]2CC[C@H]1C[C@@H](OC(=O)C(CO)c1ccccc1)C2` (some centres unmarked) [atropine], the “alteration of baseline contractile frequency” value ([1]; cholinergic antagonist) was “did not result in an alteration of baseline contractile frequency”.

B1: Noggin: secreted factor which acts as an antagonist for members of the BMP family of proteins (Pepro Tech) (protein, UniProt Q13253 28-232, looked up)
Noggin: QHYLHIRPAPSDNLPLVDLIEHPDPIFDPKEKDLNETLLRSLLGGHYDPGFMATSPPEDRPGGGGGAAGGAEDLAELDQLLRQRPSGAMPSEIKGLEFSEGLAQGKKQRLSKKLRRKLQMWLWSQTFCPVLYAWNDLGSRFWPRYVKVGSCFSKRSCSVPEGMVCKPSKSVHLTVLRWRCQRRGGQRCGWIPIQYPIISECKCSC
With B1 the “aggregate size (connected microcarrier supports)” value ([2]; Noggin treated bioreactor culture, 6 days post inoculation) was 2-3 microcarrier supports, the “contractile activity / myocyte interaction” value ([2]; Noggin-treated cultures, about 8 hour post-inoculation) was “no disruption in myocyte interaction or contractile apparatus reformation” and the tissue-like aggregate formation ([2]; about 0.4 μg/ml Noggin in media, bioreactor culture) was “only small thin aggregates”.
